Measured values reported in patent US20100183527A1, “Cosmetic Compositions Comprising Sclareolide and Hesperidin Methyl Chalcone” (COGNIS IP MANAGEMENT GMBH, priority 2007, published 2010).

Tests used:
Assay type in all cases: cell-based
[1] = test system: Melanocytes (B16 cell line); test: Melanogenesis stimulation assay, level of melanin (optical density at 475 nm); details: 3 days incubation, mean +/- SEM
Protocol: (§1) Melanocytes (B16 cell line) were inoculated in standard medium of cell culture with foetal calf serum (FCS). After an incubation of 3 day at 37° C. and CO2=5%, growth medium was exchanged for standard medium with a range of concentrations for each active ingredient to be tested and a control without ingredient. After an incubation of 3 days, the level of melanin was measured by recording the optical density at 475 nm. After washing the cells by a balanced salt solution, and homogenisation in a solution of 0.1 M NaOH, the number of viable cells was determined by evaluation of the level of cellular proteins (Bradford's method). The results are expressed in % against control (cell culture medium without compound) as a mean+/−SEM (Standard Error of Mean) on 2 or 3 assays, each in triplicate.

[2] = test system: Melanocytes (B16 cell line); test: Number of viable cells by level of cellular proteins (Bradford's method), Example 2 combination; details: for Amount of cellular proteins: mean +/- SEM
Protocol: (§2) Melanocytes (B16 cell line) were inoculated in standard medium of cell culture with foetal calf serum (FCS). After an incubation for 3 days at 37° C. and CO2=5%, growth medium was exchanged for standard medium with a range of concentrations for each active ingredient to be tested and a control without ingredient. Combinations of active ingredients were tested on the same cultures, in parallel with active ingredients alone. After an incubation of 3 days, the cells were washed by a balanced salt solution, and homogenised in a solution of 0.1 M NaOH. The number of viable cells was determined by evaluation of the level of cellular proteins (Bradford's method) and the level of intracellular melanin was measured by recording the optical density at 475 nm.
(§3) The results are expressed in % against control (cell culture medium without compound) as a mean+/−SEM (Standard Error of Mean) on 5 assays, each in triplicate.

[3] = test system: Melanocytes (B16 cell line); test: Number of viable cells by level of cellular proteins (Bradford's method), Example 1; details: 3 days incubation, mean +/- SEM
Protocol: as §1

[4] = test system: Melanocytes (B16 cell line); test: Melanogenesis stimulation assay for combination, level of intracellular melanin (optical density at 475 nm); details: for rate of melanin: mean +/- SEM
Protocol: as §2, §3

[5] = Sclareolide 0.000025 % (w/v) alone
[6] = Sclareolide 0.000050 % (w/v) alone

CC1(C)CCC[C@]2(C)[C@H]3CC(=O)O[C@]3(C)CC[C@@H]12 [Sclareolide, (3aR,5aS,9aS,9bR)— decahydro-3a,6,6,9a-tetramethyl naphtho(2,1-b)furan-2(1H)-one]
Melanin level ([1]; Dose 0.0003 % (w/v)): 174 +/− 55 %/control | Melanin level ([1]; Dose 0.001 % (w/v)): 286 +/− 83 %/control | Amount of cellular proteins [2, 5]: 97 +/− 18 %/control | Amount of cellular proteins [2, 6]: 106 +/− 10 %/control | toxic effects, decrease of amount of cellular proteins (in words) ([2]; concentrations of Table 3, tested separately or mixed): do not show any toxic effects | Protein level (rate of cellular proteins) ([3]; Dose 0.0003 % (w/v)): 89 +/− 11 %/control | Protein level (rate of cellular proteins) ([3]; Dose 0.001 % (w/v)): 83 +/− 17 %/control | rate of melanin [4, 5]: 116 +/− 7 %/control | rate of melanin [4, 6]: 120 +/− 6 %/control | rate of melanin synthesis / efficacy (in words) ([4]; very low doses (Table 2)): increased the rate of melanin synthesis
